In PMC6257465, “Synthesis of N-(Methoxycarbonylthienylmethyl)thioureas and Evaluation of Their Interaction with Inducible and Neuronal Nitric Oxide Synthase” (Molecules, 2010):

Target: T1, recombinant human iNOS (hiNOS) (Homo sapiens, UniProt P35228)
T1 construct: gene NOS2; human iNOS cDNA in pEFIRES-P, overexpressed in HT1080 fibrosarcoma cells; post-mitochondrial supernatant, arginine removed with Dowex-50W; homodimer
Assay: L-[U-14C]-arginine to L-[U-14C]-citrulline conversion assay
Type: biochemical
Conditions: 100 µM, test compound added simultaneously with L-[U-14C]-arginine
Source text: L-[U-14C]-arginine to L-[U-14C]-citrulline conversion assay on recombinant human iNOS (hiNOS)

T1 sequence (P35228 whole entry): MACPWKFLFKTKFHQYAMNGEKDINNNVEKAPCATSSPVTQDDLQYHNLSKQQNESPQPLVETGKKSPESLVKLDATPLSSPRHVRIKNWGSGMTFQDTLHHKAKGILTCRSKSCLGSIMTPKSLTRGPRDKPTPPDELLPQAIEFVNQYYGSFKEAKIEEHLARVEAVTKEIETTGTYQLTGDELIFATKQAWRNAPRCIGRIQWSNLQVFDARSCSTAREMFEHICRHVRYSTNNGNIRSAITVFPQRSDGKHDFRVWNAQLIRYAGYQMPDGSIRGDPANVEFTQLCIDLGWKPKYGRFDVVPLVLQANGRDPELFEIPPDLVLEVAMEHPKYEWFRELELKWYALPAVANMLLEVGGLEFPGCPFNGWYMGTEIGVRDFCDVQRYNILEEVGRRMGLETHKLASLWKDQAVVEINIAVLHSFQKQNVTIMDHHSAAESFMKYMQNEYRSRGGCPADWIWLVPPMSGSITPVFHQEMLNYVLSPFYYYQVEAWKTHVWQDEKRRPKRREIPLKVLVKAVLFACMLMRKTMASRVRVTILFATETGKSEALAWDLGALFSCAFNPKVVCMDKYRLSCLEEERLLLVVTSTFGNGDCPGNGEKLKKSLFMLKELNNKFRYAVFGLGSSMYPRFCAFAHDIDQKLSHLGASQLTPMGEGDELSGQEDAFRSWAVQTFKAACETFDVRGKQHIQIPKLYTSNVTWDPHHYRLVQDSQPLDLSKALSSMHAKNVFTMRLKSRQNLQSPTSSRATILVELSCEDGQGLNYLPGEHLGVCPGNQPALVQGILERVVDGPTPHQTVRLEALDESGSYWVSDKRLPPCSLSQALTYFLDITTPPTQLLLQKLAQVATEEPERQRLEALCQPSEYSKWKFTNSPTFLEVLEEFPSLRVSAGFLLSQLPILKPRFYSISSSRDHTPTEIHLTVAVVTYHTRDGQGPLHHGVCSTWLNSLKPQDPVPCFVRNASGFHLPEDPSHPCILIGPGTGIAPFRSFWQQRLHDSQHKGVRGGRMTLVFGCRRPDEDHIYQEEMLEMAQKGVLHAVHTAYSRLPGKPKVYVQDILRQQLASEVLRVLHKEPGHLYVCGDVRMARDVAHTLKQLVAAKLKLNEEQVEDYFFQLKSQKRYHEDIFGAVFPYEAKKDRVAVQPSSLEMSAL

% Stimulation of hiNOS activity ^a / t = 0 min ^b | SMILES
+62 ± 2% | COC(=O)c1ccc(CNC(N)=S)s1 [compound 13, Methyl 5-(thioureidomethyl)thiophene-2-carboxylate]
+37 ± 27% | COC(=O)c1cc(CNC(N)=S)cs1 [compound 25, Methyl 4-(thioureidomethyl)thiophene-2-carboxylate]
